Patent publication US11415579B2, “Assay for measuring a rate of reaction between a target and a ligand candidate” (Imperial College Innovations Ltd., priority 2016, dated 2022)

Legend:
[1] = target: T1, human cyclin-dependent kinase 2 (Cdk2) (Homo sapiens, UniProt P24941); assay: Kinetic thiol consumption assay with wild type Cdk2 (C177); type: binding; set-up: key to Rate enhancement, Cdk2 WT: k(Cdk2) divided by k(model thiol); Rate constant with Cdk2 (k(Cdk2)): unit not given here; settings: for Rate constant with Cdk2 (k(Cdk2)): 500 μM ligand, 5 μM thiol, phosphate buffer pH 8; for k(Cdk2)/k(GSH) rate enhancement: model thiol glutathione; for Rate enhancement, Cdk2 WT: no additional mutations; for Rate constant with Cdk2 WT: Protein: Cdk2, cysteine position WT, in h^-1
T1 construct: poly-histidine; made in house; host or cells: E. coli
Method: (§1) A library of 120 acrylamides was screened against a) human cyclin-dependent kinase 2 (Cdk2, which contains one surface exposed cysteine residue—C177), prepared by cloning cDNA into the pRSETA bacterial expression vector to generate a poly-histidine tagged Cdk2 fusion that was purified from E. coli using standard techniques, and b) a model thiol (specific details are given below). The structures of these 120 acrylamides are set out in Table 1, above.
(§2) To wells containing 150 μL thiol (Cdk2 or model thiol) (5 μM) in degassed phosphate buffer (pH 8) was added immobilized TCEP beads (2% v/v).
(§3) After incubation of the fluorescence plates for 1 hour at room temperature, fluorescence measurements (excitation/emission of 380/470 nm) were taken on a PerkinElmer EnVision multilabel plate reader and processed with EnVision Workstation version 1.12.
(§4) Fluorescence measurements were normalized against a DMSO/thiol only control and plotted against time.
(§5) Rate constants were calculated using GraphPad software Prism version 6 by fitting a first order exponential decay to the data. The rate constant for each acrylamide with Cdk2 was divided by the rate constant for that fragment with the model thiol to provide the rate enhancement for each ligand candidate.

[2] = Kinetic thiol consumption assay with model thiol glutathione; type: physicochemical; set-up: Rate constant with glutathione (k(GSH)): unit not given here; settings: for Rate constant with glutathione (k(GSH)): 500 μM ligand, 5 μM thiol, phosphate buffer pH 8; for Rate constant with Glutathione: Protein: Glutathione, cysteine position NA, in h-1
Method: as §1, §2, §3, §4, §5
The model thiol in Example 1 is glutathione (GSH). Hits were defined as fragments where kCdk2/kGSH>5.8 (empirically determined as 3 standard deviations over the mean).

Cdk2[C177A, F80C, K278C] = target: T2, Cdk2[C177A, F80C, K278C] (Homo sapiens, UniProt P24941, C177A/F80C/K278C); assay: Kinetic thiol consumption assay with mutant Cdk2 as model thiol; type: binding; set-up: unit not given here; settings: 500 μM ligand, 5 μM thiol, phosphate buffer pH 8
T2 construct: poly-histidine; made in house; host or cells: E. coli
Method: as §1, §2, §3, §4, §5
The model thiol used in Example 2 is a mutant form of human Cdk2 (C177A, F80C, K278C) which contains two engineered surface exposed cysteine residues. Mutations were introduced by site-directed mutagenesis and the resulting cDNA was cloned into the pRSETA bacterial expression vector to generate a poly-histidine tagged Cdk2 fusion that was purified from E. coli using standard techniques.

Cdk2(N272C) (C177A) = target: T3, Cdk2(N272C) (C177A) (Homo sapiens, UniProt P24941, C177A/N272C); assay: Kinetic thiol consumption assay with Cdk2 mutant N272C; type: binding; set-up: key to Rate enhancement, Cdk2 N272: rate constant with Cdk2 ÷ rate constant with model thiol (fold); settings: for Rate enhancement, Cdk2 N272: Cdk2 N272, additional mutation C177A; for Rate constant with Cdk2 N272C: Protein: Cdk2, cysteine position N272C, additional mutation C177A, in h^-1
T3 construct: poly-histidine; made in house; host or cells: E. coli
Method: as §2, §3, §4, §5
(§6) A further set of set of additional Cdk2 mutants were screened, all containing the C177A mutation and therefore with only one cysteine on the surface: • F80C (without the K278C mutation) • H71C • S276C • N272 • T182C • R122C • S181C
(§7) Mutations were introduced by site-directed mutagenesis and the resulting cDNA was cloned into the pRSETA bacterial expression vector to generate a poly-histidine tagged Cdk2 fusion that was purified from E. coli using standard techniques.

Cdk2(S276C) (C177A) = target: T4, Cdk2(S276C) (C177A) (Homo sapiens, UniProt P24941, C177A/S276C); assay: Kinetic thiol consumption assay with Cdk2 mutant S276C; type: binding; set-up: key to Rate enhancement, Cdk2 S276C: rate constant with Cdk2 ÷ rate constant with model thiol (fold); settings: additional mutation C177A; for Rate constant with Cdk2 S276C: Protein: Cdk2, cysteine position S276C, in h^-1
T4 construct: poly-histidine; made in house; host or cells: E. coli
Method: as §2, §3, §4, §5, §6, §7

Cdk2(H71C) (C177A) = target: T5, Cdk2(H71C) (C177A) (Homo sapiens, UniProt P24941, C177A/H71C); assay: Kinetic thiol consumption assay with Cdk2 mutant H71C; type: binding; set-up: key to Rate enhancement, Cdk2 H71C: rate constant with Cdk2 ÷ rate constant with model thiol (fold); settings: additional mutation C177A; for Rate constant with Cdk2 H71C: Protein: Cdk2, cysteine position H71C, in h^-1
T5 construct: poly-histidine; made in house; host or cells: E. coli
Method: as §2, §3, §4, §5, §6, §7

Cdk2(T182C) (C177A) = target: T6, Cdk2(T182C) (C177A) (Homo sapiens, UniProt P24941, C177A/T182C); assay: Kinetic thiol consumption assay with Cdk2 mutant T182C; type: binding; set-up: key to Rate enhancement, Cdk2 T182C: rate constant with Cdk2 ÷ rate constant with model thiol (fold); settings: additional mutation C177A; for Rate constant with Cdk2 T182C: Protein: Cdk2, cysteine position T182C, in h^-1
T6 construct: poly-histidine; made in house; host or cells: E. coli
Method: as §2, §3, §4, §5, §6, §7

Cdk2(C177A, F80C) = target: T7, Cdk2(C177A, F80C) (Homo sapiens, UniProt P24941, C177A/F80C); assay: Kinetic thiol consumption assay with Cdk2 mutant F80C, incl. kobs versus concentration (Kd, k2); type: binding; set-up: key to Rate enhancement, Cdk2 F80C: Cdk2 rate constant divided by model-thiol rate constant; settings: additional mutation C177A; for Rate constant with Cdk2 F80C: Protein: Cdk2, cysteine position F80C, in h^-1
T7 construct: poly-histidine; made in house; host or cells: E. coli
Method: Therefore the assay can be used to calculate both k2 and Kd by experimentally determining kobs at a suitable range of ligand candidate concentrations. Typically Kd and k2 would then be determined by fitting a hyperbolic curve to a plot of kobs against ligand candidate concentration (FIG. 9).
as §2, §3, §4, §5, §6, §7
Rate constants were calculated as described in the methodology section of Examples 1 and 2.

Cdk2(R122C) (C177A) = target: T8, Cdk2(R122C) (C177A) (Homo sapiens, UniProt P24941, C177A/R122C); assay: Kinetic thiol consumption assay with Cdk2 mutant R122C; type: binding; set-up: key to Rate enhancement, Cdk2 R122C: rate constant with Cdk2 ÷ rate constant with model thiol (fold); settings: additional mutation C177A; for Rate constant with Cdk2 R122C: Protein: Cdk2, cysteine position R122C, in h-1
T8 construct: poly-histidine; made in house; host or cells: E. coli
Method: as §2, §3, §4, §5, §6, §7

Cdk2(S181C) (C177A) = target: T9, Cdk2(S181C) (C177A) (Homo sapiens, UniProt P24941, C177A/S181C); assay: Kinetic thiol consumption assay with Cdk2 mutant S181C; type: binding; set-up: key to Rate enhancement, Cdk2 S181C: rate constant with Cdk2 ÷ rate constant with model thiol (fold); settings: additional mutation C177A; for Rate constant with Cdk2 S181C: Protein: Cdk2, cysteine position S181C, in h^-1
T9 construct: poly-histidine; made in house; host or cells: E. coli
Method: as §2, §3, §4, §5, §6, §7

Structure (SMILES) | Rate constant with Cdk2 (k(Cdk2)) [1] | k(Cdk2)/k(GSH) rate enhancement [1] | Rate constant with glutathione (k(GSH)) [2] | Rate enhancement, Cdk2 WT [1] | Rate constant with Cdk2 WT [1] | Rate enhancement, Cdk2 N272 (Cdk2(N272C) (C177A)) | Rate constant with Cdk2 N272C (Cdk2(N272C) (C177A)) | Rate enhancement, Cdk2 S276C (Cdk2(S276C) (C177A)) | Rate constant with Cdk2 S276C (Cdk2(S276C) (C177A)) | Rate enhancement, Cdk2 H71C (Cdk2(H71C) (C177A)) | Rate enhancement, Cdk2 T182C (Cdk2(T182C) (C177A)) | Rate constant with Cdk2 T182C (Cdk2(T182C) (C177A)) | Rate constant with Glutathione [2] | Rate enhancement, Cdk2 F80C (Cdk2(C177A, F80C)) | Rate constant with Cdk2 F80C (Cdk2(C177A, F80C)) | Rate enhancement, Cdk2 R122C (Cdk2(R122C) (C177A)) | Rate constant with Cdk2 R122C (Cdk2(R122C) (C177A)) | Rate enhancement, Cdk2 S181C (Cdk2(S181C) (C177A)) | Rate constant with Cdk2 S181C (Cdk2(S181C) (C177A)) | Rate constant with Cdk2 H71C (Cdk2(H71C) (C177A)) | further results
C=CC(=O)N(c1cccc2ncccc12)C1CCC1 [CA-032] | 0.02299 | 1.4 | 0.01642 | – | – | – | – | – | – | – | – | – | – | – | – | – | – | – | – | – | k(Cdk2)/k(Cdk2_mut) rate enhancement ([1]; model thiol Cdk2[C177A, F80C, K278C]): 2.082; Rate constant with Cdk2[C177A, F80C, K278C] (k(Cdk2_mut)) (Cdk2[C177A, F80C, K278C]): 0.01104
C=CC(=O)NC1(C(N)=O)CCCCC1 [EL-1170] | 0.00308 | 1.271 | 0.00243 | 1.986 | 0.004821 | 0.3641 | 0.0008836 | 0.3126 | 0.0007587 | 0 | 0.5731 | 0.001391 | 0.002427 | 0.5052 | 0.001226 | 0.304 | 0.0007379 | 0.953 | 0.002313 | – | –
C=CS(=O)(=O)c1ccccc1 [EN001] | – | – | – | 1.608 | 9.832 | 0.3977 | 2.432 | 0.5145 | 3.146 | 0.3485 | 1.394 | 8.524 | 6.115 | 0.0006656 | 0.00407 | 0.2211 | 1.352 | 0.06554 | 0.4008 | 2.131 | –
O=C(CCl)N1CCSc2ccccc21 [EN004] | – | – | – | 4.361 | 1.596 | 0.243 | 0.08895 | 4.615 | 1.689 | 0.3522 | 0 | – | 0.366 | 0.01666 | 0.006096 | 0.1248 | 0.04566 | 0.08978 | 0.03286 | 0.1289 | –
